Tested on: Sox2 protein
Experiment: Sox2 protein expression in transfected NHLF (pcDNA3.1 empty vector or pcDNA3.1-SOX2), western blotting (2-3)
Type: cell-based, human
Settings: TGF-β1 5 ng/ml 12 h
Procedure: The pcDNA3.1 empty vector and the pcDNA3.1-SOX2 plasmid (i.e., pcDNA3.1 vector containing SOX2 gene) were respectively transfected into Normal Human lung fibroblasts (NHLF) by the Fugene HD cell transfection reagent. The cells were screened to obtain NHLFs containing the pcDNA3.1 empty vector or the pcDNA3.1-SOX2 plasmid.
NHLFs containing the pcDNA3.1 empty vector were then seeded into 6 cm culture dishes at a density of 2×10^5 cells/dish, comprising a control group and three experimental groups (4 dishes in total). The cells were cultured until the next day, and then the mediums were removed. Each group was respectively treated under the following conditions to conduct follow-up experiments: • (1) Control group I: cells were cultured in a FGM-2 medium containing 1% serum for 36 hours; • (2) Group A: cells were cultured in a FGM-2 medium containing 1% serum and TGF-β1 (5 ng/ml) for 36 hours; • (3) Group B: cells were firstly cultured in a FGM-2 medium containing 1% serum and TGF-β1 (5 ng/ml) for 12 hours, and then compound (1) was added into the medium to provide a final concentration of 15 μg/ml; thereafter, the cells were cultured for another 24 hours; and • (4) Group C: cells were firstly cultured in a FGM-2 medium containing 1% serum and TGF-β1 (5 ng/ml) for 12 hours, and then compound (1) was added into the medium to provide a final concentration of 30 μg/ml; thereafter, the cells were cultured for another 24 hours.
In another aspect, NHLFs containing the pcDNA3.1-SOX2 plasmid were seeded into the 6 cm culture dishes at a density of 2×10^5 cells/dish, comprising a control group and three experimental groups (4 dishes in total). The cells were cultured until the next day, and then the mediums were removed. Each group was respectively treated under the following conditions to conduct follow-up experiments: • (1) Control group II: cells were cultured in a FGM-2 medium containing 1% serum for 36 hours; • (2) Group D: cells were cultured in a FGM-2 medium containing 1% serum and TGF-β1 (5 ng/ml) for 36 hours; • (3) Group E: cells were firstly cultured in a FGM-2 medium containing 1% serum and TGF-β1 (5 ng/ml) for 12 hours, and then the compound (1) was added into the medium to provide a final concentration of 15 μg/ml; thereafter, the cells were cultured for another 24 hours; and • (4) Group F: cells were firstly cultured in a FGM-2 medium containing 1% serum and TGF-β1 (5 ng/ml) for 12 hours, and then the compound (1) was added into the medium to provide a final concentration of 30 μg/ml; thereafter, the cells were cultured for another 24 hours.
Thereafter, the proteins in the cells of each group were extracted, and the expressions of Sox2 protein, TGF-β protein and type I collagen in the NHLF cells of each group were measured with western blotting. […]

With `CCCC=C1OC(=O)c2ccccc21` [compound (1)] the “Relative expression level (fold) Sox2 protein” value (Group B: NHLF with pcDNA3.1 empty vector, then compound (1) 15 μg/ml 24 h, control group I = 1, TGF-β1-only group A = 1.55) was 1.81 fold, the “Relative expression level (fold) Sox2 protein” value (Group C: NHLF with pcDNA3.1 empty vector, then compound (1) 30 μg/ml 24 h, control group I = 1, TGF-β1-only group A = 1.55) was 1.04 fold and the “Relative expression level (fold) Sox2 protein” value (Group E: NHLF with pcDNA3.1-SOX2 plasmid, then compound (1) 15 μg/ml 24 h, control group II = 1, TGF-β1-only group D = 0.88) was 1.03 fold. The “Relative expression level (fold) Sox2 protein” value (Group F: NHLF with pcDNA3.1-SOX2 plasmid, then compound (1) 30 μg/ml 24 h, control group II = 1, TGF-β1-only group D = 0.88) was 1.02 fold.

Reference: patent US20170333391A1, “METHOD FOR DELAYING THE ONSET OF PULMONARY FIBROSIS OR TREATING PULMONARY FIBROSIS” (EVERFRONT BIOTECH INC., priority 2016, published 2017)
